Laboratory results reported in ChEMBL document CHEMBL1134339, “New 1-aryl-3-(4-arylpiperazin-1-yl)propane derivatives, with dual action at 5-HT1A serotonin receptors and serotonin transporter, as a new class of antidepressants” (J Med Chem, 2001).
pKi: −log10 of the molar value.

Assays:
Rattus norvegicus [1] = assay: Effect on helpless behavior in rats and the number of escape failures was determined in shuttle-box session-2 (SB-2) at 30 mg/kg dose; format: functional
Rattus norvegicus [2] = assay: Effect on helpless behavior in rats and the number of escape failures was determined in shuttle-box session-3 (SB-3) at 30 mg/kg dose; format: functional
Rattus norvegicus [3] = assay: Effect on helpless behavior in rats and the number of escape failures was determined in shuttle-box session-1 (SB-1) at 30 mg/kg dose; format: functional
Mus musculus [4] = assay: Effect on immobility time in the forced swimming test (FST) in mice at 0.01 mg/kg dose; format: functional
Mus musculus [5] = assay: Time-dependent effect on 8-OH-DPAT-induced hypothermia (change in body temperature) after 30 min, in mice at 5 mg/kg dose; format: functional
Mus musculus [6] = assay: Antidepressant-like activity in the forced swimming test (FST) in mice at 0.1 mg/kg dose; Antidepressant like activity; format: functional
Mus musculus [7] = assay: Effect on immobility time in the forced swimming test (FST) in mice at 1 mg/kg dose; format: functional
Mus musculus [8] = assay: Effect on immobility time in the forced swimming test (FST) in mice at 10 mg/kg dose; format: functional
[9] = target: T1, 5-hydroxytryptamine receptor 1A (Rattus norvegicus, UniProt P19327); assay: Binding affinity to 5-hydroxytryptamine 1A receptor (5-HT 1A receptor, serotonin receptor) from rat cortex using [3H]8-OH-DPAT as radioligand; settings: read-out: Ki
T1 sequence (P19327 whole entry): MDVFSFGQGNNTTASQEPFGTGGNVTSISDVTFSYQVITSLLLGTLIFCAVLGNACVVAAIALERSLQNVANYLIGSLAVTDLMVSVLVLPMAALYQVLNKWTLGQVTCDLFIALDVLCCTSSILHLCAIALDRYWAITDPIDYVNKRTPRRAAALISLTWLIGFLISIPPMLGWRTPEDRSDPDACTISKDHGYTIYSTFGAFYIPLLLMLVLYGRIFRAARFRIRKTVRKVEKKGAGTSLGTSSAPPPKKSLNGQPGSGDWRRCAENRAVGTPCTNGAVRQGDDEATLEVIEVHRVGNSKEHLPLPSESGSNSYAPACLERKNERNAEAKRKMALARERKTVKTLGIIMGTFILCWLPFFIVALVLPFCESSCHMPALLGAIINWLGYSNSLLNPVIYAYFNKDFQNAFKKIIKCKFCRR

Mus musculus [10] = assay: Time-dependent effect on 8-OH-DPAT-induced hypothermia (change in body temperature) after 15 min, in mice at 0.5 mg/kg dose; format: functional
Mus musculus [11] = assay: Antidepressant-like activity in the forced swimming test (FST) in mice at 10 mg/kg dose; Antidepressant like activity; format: functional
Mus musculus [12] = assay: Antidepressant-like activity in the forced swimming test (FST) in mice at 0.01 mg/kg dose; Antidepressant like activity; format: functional
Mus musculus [13] = assay: Time-dependent effect on 8-OH-DPAT-induced hypothermia (change in body temperature) after 60 min, in mice at 5 mg/kg dose; format: functional
Mus musculus [14] = assay: Time-dependent effect on 8-OH-DPAT-induced hypothermia (change in body temperature) after 15 min, in mice at 5 mg/kg dose; format: functional
Mus musculus [15] = assay: Effect on immobility time in the forced swimming test (FST) in mice at 0 mg/kg dose; format: functional
Mus musculus [16] = assay: Time-dependent effect on 8-OH-DPAT-induced hypothermia (change in body temperature) after 30 min, in mice at 0.5 mg/kg dose; format: functional
Mus musculus [17] = assay: Antidepressant-like activity in the forced swimming test (FST) in mice at 1 mg/kg dose; Antidepressant like activity; format: functional
Mus musculus [18] = assay: Effect on immobility time in the forced swimming test (FST) in mice at 0.1 mg/kg dose; format: functional
[19] = target: Sodium-dependent serotonin transporter (Rattus norvegicus, UniProt P31652); assay: Binding affinity towards Serotonin transporter from rat cortex measured using [3H]paroxetine; settings: read-out: Ki
Mus musculus [20] = assay: Time-dependent effect on 8-OH-DPAT-induced hypothermia (change in body temperature) after 60 min, in mice at 0.5 mg/kg dose; format: functional
Rattus norvegicus [21] = assay: Effect on helpless behavior in rats and the number of escape failures was determined in shuttle-box session-3 (SB-3) at 1 mg/kg dose; format: functional
Rattus norvegicus [22] = assay: Effect on helpless behavior in rats and the number of escape failures was determined in shuttle-box session-2 (SB-2) at 1 mg/kg dose; format: functional
Rattus norvegicus [23] = assay: Effect on helpless behavior in rats and the number of escape failures was determined in shuttle-box session-1 (SB-1) at 1 mg/kg dose; format: functional
Mus musculus [24] = assay: Time-dependent effect on 8-OH-DPAT-induced hypothermia (change in body temperature) after 30 min, in mice at 1 mg/kg dose; format: functional
Mus musculus [25] = assay: Time-dependent effect on 8-OH-DPAT-induced hypothermia (change in body temperature) after 15 min, in mice at 1 mg/kg dose; format: functional
Mus musculus [26] = assay: Time-dependent effect on 8-OH-DPAT-induced hypothermia (change in body temperature) after 60 min, in mice at 1 mg/kg dose; format: functional
[27] = target: T2, 5-hydroxytryptamine receptor 1A (Homo sapiens) (UniProt P08908); settings: HeLa
T2 sequence (whole entry): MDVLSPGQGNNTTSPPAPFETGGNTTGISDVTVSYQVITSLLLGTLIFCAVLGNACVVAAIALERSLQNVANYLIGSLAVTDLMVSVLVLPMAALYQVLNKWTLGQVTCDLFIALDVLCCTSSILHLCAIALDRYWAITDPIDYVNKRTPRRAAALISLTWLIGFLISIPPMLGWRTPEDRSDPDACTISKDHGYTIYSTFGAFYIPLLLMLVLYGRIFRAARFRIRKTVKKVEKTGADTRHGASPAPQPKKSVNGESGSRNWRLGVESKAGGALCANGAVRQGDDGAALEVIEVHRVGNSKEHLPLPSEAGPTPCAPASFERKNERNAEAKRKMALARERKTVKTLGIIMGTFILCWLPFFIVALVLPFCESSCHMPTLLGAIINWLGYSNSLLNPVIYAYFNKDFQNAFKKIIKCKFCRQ
Description: Effect on Forskolin-Stimulated cAMP formation, in HeLa cells transfected with the 5-HT 1A receptor at 1 uM concentration

[28] = target: T2, 5-hydroxytryptamine receptor 1A (Homo sapiens); settings: HeLa; remark: listed apart in the source
Description: Effect (1 uM) on Forskolin-Stimulated cAMP formation, in HeLa cells transfected with the 5-HT 1A receptor

[29] = target: T2, 5-hydroxytryptamine receptor 1A (Homo sapiens); assay: Percent increase in the Forskolin-Stimulated cAMP formation, in HeLa cells transfected with the 5-HT 1A receptor [compound (1 uM)]; format: functional, cell-based
[30] = target: T2, 5-hydroxytryptamine receptor 1A (Homo sapiens); assay: Percent increase in the Forskolin-Stimulated cAMP formation, in HeLa cells transfected with the 5-HT 1A receptor at 1 uM concentration; format: functional, cell-based

Chain of Sodium-dependent serotonin transporter (P31652 whole entry): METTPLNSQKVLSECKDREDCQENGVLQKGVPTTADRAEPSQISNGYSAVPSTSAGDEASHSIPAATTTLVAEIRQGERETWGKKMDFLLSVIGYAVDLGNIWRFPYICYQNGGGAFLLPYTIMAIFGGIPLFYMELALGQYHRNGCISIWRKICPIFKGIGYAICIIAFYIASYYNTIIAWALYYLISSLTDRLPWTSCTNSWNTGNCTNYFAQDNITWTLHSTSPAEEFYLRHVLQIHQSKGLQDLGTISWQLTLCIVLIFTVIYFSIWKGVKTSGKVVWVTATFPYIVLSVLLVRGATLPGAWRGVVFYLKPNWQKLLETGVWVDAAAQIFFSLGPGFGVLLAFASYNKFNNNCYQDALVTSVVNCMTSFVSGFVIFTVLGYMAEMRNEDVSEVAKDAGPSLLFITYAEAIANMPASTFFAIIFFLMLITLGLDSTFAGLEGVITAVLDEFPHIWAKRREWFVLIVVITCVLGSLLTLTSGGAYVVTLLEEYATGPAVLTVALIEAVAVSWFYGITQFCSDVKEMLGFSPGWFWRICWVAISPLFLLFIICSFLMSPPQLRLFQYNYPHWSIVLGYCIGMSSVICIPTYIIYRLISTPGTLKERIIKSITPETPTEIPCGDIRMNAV

Row | SMILES | Temperature change (Mus musculus [5]) | Activity (Mus musculus [6]) | Immobility time (Mus musculus [7]) | Immobility time (Mus musculus [8]) | pKi [9] | Temperature change (Mus musculus [10]) | Activity (Mus musculus [11]) | Temperature change (Mus musculus [13]) | Temperature change (Mus musculus [14]) | Immobility time (Mus musculus [15]) | Temperature change (Mus musculus [16]) | Activity (Mus musculus [17]) | Immobility time (Mus musculus [18]) | pKi [19] | Temperature change (Mus musculus [20]) | further results
1 | CNCCC(Oc1ccc(C(F)(F)F)cc1)c1ccccc1 (stereo not given) [FLUOXETINE] |  |  |  |  |  |  |  |  |  |  |  |  |  |  |  | No. of escape failures (Rattus norvegicus [1]): <4; No. of escape failures (Rattus norvegicus [2]): <3.2; No. of escape failures (Rattus norvegicus [3]): 13
2 | Oc1ccccc1N1CCN(CCC(O)c2csc3ccccc23)CC1 (stereo not given) | -2.2 °C | 40% | 183.3 s | 160.9 s | 7.74 | -2.54 °C | 11% | -1.32 °C | -3.17 °C | 178 s | -2.01 °C | 0% | <112.5 s | 7.41 | -1.38 °C | Immobility time (Mus musculus [4]): 186.1 s; Activity (Mus musculus [12]): 0%
3 | Fc1ccc([C@@H]2CCNC[C@H]2COc2ccc3c(c2)OCO3)cc1 [PAROXETINE] |  |  |  |  |  |  |  |  |  |  |  |  |  |  |  | No. of escape failures (Rattus norvegicus [21]): 2.2; No. of escape failures (Rattus norvegicus [22]): 3; No. of escape failures (Rattus norvegicus [23]): 3.3
4 | COc1ccccc1N1CCN(CCN(C(=O)C2CCCCC2)c2ccccn2)CC1 [WAY-100,635] |  |  |  |  |  |  |  |  |  |  |  |  |  |  |  | Temperature change (Mus musculus [24]): <-0.95 °C; Temperature change (Mus musculus [25]): <-0.71 °C; Temperature change (Mus musculus [26]): -0.35 °C
5 | COc1ccccc1N1CCN(CC/C(=N\O)c2ccc(C)s2)CC1 | -1.31 °C | 0% | <79.2 s | 126.2 s | 6.89 | -2.12 °C | 13% | -0.94 °C | -1.41 °C | 142.7 s | -2.05 °C | 51% | 151.6 s | 7.19 | -1.11 °C | cAMP [27]: 7.4 pmol/well; cAMP [28]: 9.8 pmol/well; cAMP increase [29]: 33%; cAMP increase [30]: 25%
